In article PMC11567856, “A novel peptide‐based tau aggregation inhibitor as a potential therapeutic for Alzheimer's disease and other tauopathies” (Alzheimer's & Dementia, 2024):
Where a SMILES comes first, the peptide text is derived from it. [ ]: non-standard residue; d: D form.

How the values were obtained:
Tau^Δ1‐250 [1] = target: T1, Tau^Δ1‐250 (Homo sapiens, UniProt P10636); test: Circular dichroism of Tau^Δ1‐250 aggregation; type: biochemical; conditions: 20 µM Tau^Δ1‐250, 20 µM RI‐AG03, aggregated 5 h; CD 180–260 nm
T1 construct: Tau^Δ1‐250 (an aggregate prone truncated version of full‐length Tau); made in house; host or cells: E. coli BL21(DE3)
Method: Circular dichroism (CD): CD spectra were obtained using a Chirascan plus qCD spectrometer between 180 and 260 nm with a bandwidth of 1 nm and a path length of 2 mm.
FIGURE 4 Lead peptide RI‐AG03 suppresses Tau β‐sheet content and forms of off‐pathway structures. […] 20 µM RI‐AG03 was added after 0, 24, and 72 h, of Tau aggregation (hatched gray bars), or not at all (solid gray bar representing end‐point aggregation of Tau^2N4R at 9 days). Note that Tau^2N4R aggregation plateaued at ∼72 h. […] One factor repeated measures ANOVA + Tukey post hoc statistical analysis: p > 0.05, *p ≤ 0.05, **p ≤ 0.01, ***p ≤ 0.001. (C) Negative stain TEM images using a Joel JEM‐1010 after the aggregation of 20 µM Tau^Δ1‐250 for 24 h, in the absence of RI‐AG03 (left), and in the presence of 20 µM RI‐AG03 (right). (D) The area and diameter of 200 large spherical species formed in the presence of 20 µM RI‐AG03 and recorded by TEM were quantified using iTEM software. […]

Tau^Δ1‐250 [2] = target: T1, Tau^Δ1‐250; test: Congo-red staining of Tau^Δ1‐250 fibrils; type: biochemical; conditions: Tau^Δ1‐250 incubated in the presence of RI‐AG03 (Figure S11)
Method: Tau filament formation is expected to coincide with a reduction in disordered structure and an increase in β‐sheet content, even as the intermediary on‐pathway oligomers form.[67] […] However, the off‐pathway Tau aggregates that we have previously described have reduced β‐sheet content.[69] To study the β‐sheet content of the large amorphous aggregates formed in the presence of RI‐AG03, samples were analyzed using time‐resolved circular dichroism (CD) to investigate spectra changes indicative of secondary structure in the presence of RI‐AG03 over 5 h (Tau^Δ1‐250 aggregation plateaus at ∼5 h) (Figure 4E). The negative transition at 195 nm is characteristic of random coil structures being present within the Tau^Δ ^1‐250 (blue). […] Although challenging to deconvolute the increase in the negative ellipticity between ∼205 and 235 nm is consistent with the appearance of secondary structural elements including β‐strands. […] This reduction in β‐sheet content is corroborated by congo‐red staining, where the strong apple‐green birefringence observed for the Tau^Δ1‐250 fibrils was eliminated when the Tau^Δ1‐250 was incubated in the presence of RI‐AG03 (Figure S11).

[3] = tested on: Tau repeat domain (RD) with the P301S mutation fused to mCer and mClo, HEK293 biosensor cells; test: Tau fibril seeding in FRET Tau biosensor cells; type: cell-based, human
Method: Tau biosensor cells culture: RD P301S Tau biosensor cells have been previously described,[45] and in this case v2L cells were used. Cells were cultured in 10 cm dishes containing Dulbecco's Modified Eagle's Medium (DMEM) (Gibco) enriched with 10% FBS (HyClone), 1% penicillin/streptomycin (Gibco), and 1% GlutaMAX (Gibco) at 37°C with 5% CO2 in a humidified incubator.
5 µM of tau fibrils (monomer equivalent) were incubated in PBS with peptide RI‐AG03 or scramble (0–500 µM) at 300 rpm agitation at 4°C for 16 h. The reaction was stopped by flash freezing in liquid nitrogen and stored at –20°C. Tau biosensor cells were plated at a density of 30,000 cells in 120 µL of media per well in a 96‐well plate. After 18 h, using Lipofectamine 2000 cells were transduced with 10 nM of treated fibrils that had been briefly sonicated for 30 s at 65 Amp (QSonica). Lipofectamine complexes were formed in 30 µL consisting of 14.17 µL Opti‐MEM (Gibco), 15 µL of treated fibrils diluted in PBS, and 0.83 µL lipofectamine 2000 (Invitrogen), bringing the total volume to 150 µL. […] Aggregates in Tau biosensors (10,000 minimum) were quantified by FRET flow cytometry in a LSRFortessa SORP (BD Biosciences). To detect the cerulean signal, cells were excited with a 405 nm laser, and fluorescence was captured at […]. For clover signal, cells were excited with a 488 nm laser and fluorescence was detected at 525/50 nm. Flow cytometry data were analyzed using a gating strategy previously described.[45], [47] The percentage of cells with positive FRET signal were quantified. Each condition was analyzed in quadruplicate. […]
To test RI‐AG03 efficacy in mammalian cells, we utilized a fluorescence resonance energy transfer (FRET) biosensor HEK293 cell line that stably expresses the Tau repeat domain (RD) with the P301S mutation fused to mCer and mClo. These cells[45] or prior generations[71] have been used extensively to quantify Tau seeding activity and measure intracellular aggregation.[71] […] Seeded aggregation was quantified by the percentage of FRET positivity.

T1 sequence (P10636 568-758, stated change not applied): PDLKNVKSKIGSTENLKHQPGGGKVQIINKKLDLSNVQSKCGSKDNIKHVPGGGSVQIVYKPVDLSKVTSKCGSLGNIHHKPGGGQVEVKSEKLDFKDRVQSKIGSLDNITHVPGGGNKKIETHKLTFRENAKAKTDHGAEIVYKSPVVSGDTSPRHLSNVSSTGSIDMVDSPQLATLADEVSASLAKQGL

CC[C@@H](C)[C@@H](NC(=O)[C@@H](CCCCNC(C)=O)NC(=O)[C@@H](Cc1ccc(O)cc1)NC(=O)[C@@H](CCCCN)NC(=O)[C@H]1CCCN1C(=O)CNC(=O)[C@@H](CCCNC(=N)N)NC(=O)[C@@H](CCCNC(=N)N)NC(=O)[C@@H](CCCNC(=N)N)NC(=O)[C@@H](CCCNC(=N)N)NC(=O)[C@@H](CCCNC(=N)N)NC(=O)[C@@H](CCCNC(=N)N)NC(=O)[C@@H](CCCNC(=N)N)NC(=O)[C@@H](CCCNC(=N)N)NC(C)=O)C(=O)N[C@H](CCC(N)=O)C(=O)N[C@@H](C(=O)NCC(=O)N[C@H](CCCNC(=N)N)C(N)=O)C(C)C [RI‐AG03] (Ac-[dR][dR][dR][dR][dR][dR][dR][dR]G[dP][dK][dY][dK](Ac)[dI][dQ][dV]G[dR]-NH2)
CD spectral changes (random coil to secondary structure incl. β‐strands) (Tau^Δ1‐250 [1]): significantly suppressed | apple‐green birefringence of Tau^Δ1‐250 fibrils (congo‐red) (Tau^Δ1‐250 [2]): eliminated | concentrations with peptide‐induced toxicity (decrease in FRET positivity) ([3]; biosensor cells, fibrils preincubated with 0–500 µM peptide, Figure 5C): above 100 µM | aggregates (green puncta) in biosensor cells by fluorescence microscopy ([3]; preformed fibrils incubated with 30 µM peptide, compared with scramble peptide): fewer aggregates
